According to patent publication US6677460B1, “Aromatic carboxylic acid bicyclic sulfur compounds” (Idemitsu Kosan Company, Limited, priority 1993, dated 2004):

Legend:
[1] = test system: corn; assay: Upland soil treatment test (5), phytotoxicity; format: in vivo; settings: dosage 100 g a.i./hectare, 20th day after treatment
Procedure: (§1) 90 Parts by weight of the above carrier and 10 parts by weight of each of Compounds obtained in the above Preparation Examples were uniformly pulverized and mixed to obtain herbicides. Further, for Herbicide Comparative Examples, comparative herbicides were prepared by uniformly pulverizing and mixing 90 parts by weight of the above carrier and 10 parts by weight of each of the following Compounds x, y, A, B and C.
(§2) (5) Biological Test (Upland Soil Treatment Test, Herbicide Examples 10-26 and Comparative Example 9)
(§3) Seeds of weeds such as large crabgrass, barnyard grass, green foxtail, cocklebur, velvetleaf and slender amaranth and seeds of corn, wheat and barley were sown in 1/5,000-are Wagner pots filled with upland soil, and covered with upland soil. Then, a predetermined amount of the herbicide prepared in the above (1) was suspended in water and uniformly sprayed onto the soil surface. Thereafter, the plants were grown in the greenhouse, and on 20th day after the treatment, the herbicide was evaluated for herbicidal efficacy.
(§4) The dosage of each herbicide is indicated as an amount of the active ingredient per hectare. Further, air-dried weight were measured, and herbicidal efficacy and the pytotoxicity to corn are shown on the basis of the ratings described below.

[2] = test system: corn; assay: Upland soil treatment test (6), phytotoxicity; format: in vivo; settings: 100 g/hectare, 20th day after treatment; note: ranges in brackets are in %
Procedure: as §1
(§5) (6) Biological Test (Upland Soil Treatment Test, Herbicide Examples 27˜42 and Comparative Example 10).
(§6) Seeds of weeds such as large crabgrass, barnyard grass, green foxtail, cocklebur , velvetleaf and slender amaranth and seeds of corn, wheat and barley were sown in 1/5,000-are Wagner pots filled with upland soil, and covered with upland soil. Then, a predetermined amount of the herbicide prepared in the above (1) was suspended in water and uniformly sprayed onto the soil surface. Thereafter, the plants were grown in the greenhouse, and on 20th day after the treatment, the herbicide was evaluated f or herbicidal efficacy.
(§7) The dosage of each herbicide is indicated as an amount of the active ingredient per hectare. Further, air-dried weight were measured and the herbicidal efficacy and the phytotoxicity to corn are shown on the basis of the ratings described below.

[3] = test system: paddy rice; assay: Submergence soil treatment test (4), phytotoxicity; format: in vivo; settings: twenty days after treatment
Procedure: as §1
(§8) (4) Biological Test (Submergence Soil Treatment Test, Herbicide Examples 5˜9 and Comparative Examples 5˜8 and Reference Example 1 and 2)
(§9) 1/15,500-are porcelain pots were filled with paddy field soil, and seeds of barnyard grass and umbrella plant were sown in a surface layer of the soil, and paddy rice at the 2-leaf stage was transplanted. Then, the weeds were treated by uniformly spraying a diluted solution of a predetermined amount of the herbicide prepared in the above (1) onto the water surface at the time of germination of the weeds, and then the pots were allowed to stand in a greenhouse while water was properly sprayed. […] The dosage of each herbicide is shown as an amount of the active ingredient per 10 areas. Further, air-dried weights were measured, and the herbicidal efficacy and the phytotoxicity to the paddy rice were shown as follows.

[4] = test system: cocklebur; assay: Upland soil treatment test (6); format: in vivo; settings: 100 g/hectare, 20th day after treatment; note: ranges in brackets are in %
Procedure: as §1, §5, §6, §7

[5] = test system: large crabgrass; assay: Upland soil treatment test (6); format: in vivo; settings: 100 g/hectare, 20th day after treatment; note: ranges in brackets are in %
Procedure: as §1, §5, §6, §7

[6] = test system: green foxtail; assay: Upland soil treatment test (6); format: in vivo; settings: 100 g/hectare, 20th day after treatment; note: ranges in brackets are in %
Procedure: as §1, §5, §6, §7

[7] = test system: velvetleaf; assay: Upland soil treatment test (6); format: in vivo; settings: 100 g/hectare, 20th day after treatment; note: ranges in brackets are in %
Procedure: as §1, §5, §6, §7

[8] = test system: barnyard grass; assay: Upland soil treatment test (6); format: in vivo; settings: 100 g/hectare, 20th day after treatment; note: ranges in brackets are in %
Procedure: as §1, §5, §6, §7

[9] = test system: slender amaranth; assay: Upland soil treatment test (6); format: in vivo; settings: 100 g/hectare, 20th day after treatment; note: ranges in brackets are in %
Procedure: as §1, §5, §6, §7

[10] = test system: barnyard grass; assay: Submergence soil treatment test (4); format: in vivo; settings: twenty days after treatment; note: ranges in brackets are in %
Procedure: as §1, §8, §9

[11] = test system: umbrella plant; assay: Submergence soil treatment test (4); format: in vivo; settings: twenty days after treatment; note: ranges in brackets are in %
Procedure: as §1, §8, §9

[12] = test system: cocklebur; assay: Upland soil treatment test (5); format: in vivo; settings: dosage 100 g a.i./hectare, 20th day after treatment; note: ranges in brackets are in %
Procedure: as §1, §2, §3, §4

[13] = test system: large crabgrass; assay: Upland soil treatment test (5); format: in vivo; settings: dosage 100 g a.i./hectare, 20th day after treatment; note: ranges in brackets are in %
Procedure: as §1, §2, §3, §4

[14] = test system: green foxtail; assay: Upland soil treatment test (5); format: in vivo; settings: dosage 100 g a.i./hectare, 20th day after treatment; note: ranges in brackets are in %
Procedure: as §1, §2, §3, §4

[15] = test system: velvetleaf; assay: Upland soil treatment test (5); format: in vivo; settings: dosage 100 g a.i./hectare, 20th day after treatment; note: ranges in brackets are in %
Procedure: as §1, §2, §3, §4

[16] = test system: barnyard grass; assay: Upland soil treatment test (5); format: in vivo; settings: dosage 100 g a.i./hectare, 20th day after treatment; note: ranges in brackets are in %
Procedure: as §1, §2, §3, §4

[17] = test system: slender amaranth; assay: Upland soil treatment test (5); format: in vivo; settings: dosage 100 g a.i./hectare, 20th day after treatment; note: ranges in brackets are in %
Procedure: as §1, §2, §3, §4

| Structure (SMILES) | Phyto-toxicity to corn [1] | Phytotoxicity to corn [2] | Herbicidal efficacy (D): cocklebur [4] | Herbicidal efficacy (A): large crabgrass [5] | Herbicidal efficacy (C): green foxtail [6] | Herbicidal efficacy (E): velvetleaf [7] | Herbicidal efficacy (B): barnyard grass [8] | Herbicidal efficacy (F): slender amaranth [9] | Herbicidal Efficacy cocklebur [12] | Herbicidal Efficacy large crabgrass [13] | Herbicidal Efficacy green foxtail [14] | Herbicidal Efficacy velvetleaf [15] | Herbicidal Efficacy barnyard grass [16] | Herbicidal Efficacy slender amaranth [17] | also measured |
| --- | --- | --- | --- | --- | --- | --- | --- | --- | --- | --- | --- | --- | --- | --- | --- |
| CCn1ncc(C(=O)c2ccc(S(C)(=O)=O)c(C(=O)OC)c2Cl)c1O [Comp'd A, reference compound] | 0 (100) | 0 (100) | 1 (61-80) | 1 (61-80) | 4 (1-20) | 5 (0) | 2 (41-60) | 3 (21-40) | 1 (61-80) | 1 (61-80) | 4 (1-20) | 5 (0) | 2 (41-60) | 3 (21-40) | Phytotoxicity to paddy rice ([3]; dosage 1 g a.i./10 are): 0 (100); Phytotoxicity to paddy rice ([3]; dosage 3 g a.i./10 are): 4 (0-79); Herbicidal Effficacy barnyard grass ([10]; dosage 1 g a.i./10 are): 1 (61-80); Herbicidal Effficacy barnyard grass ([10]; dosage 3 g a.i./10 are): 4 (1-20); Herbicidal Effficacy umbrella plant ([11]; dosage 1 g a.i./10 are): 0 (81-100); Herbicidal Effficacy umbrella plant ([11]; dosage 3 g a.i./10 are): 4 (1-20) |
| CCn1ncc(C(=O)c2cc(C)c3c(c2C)C(C)(C)CCS3(=O)=O)c1OC(C)=O [Compound 18, 4,4,5,8-tetramethyl-6-(1-ethyl-5-acetoxypyrazol-4-yl)carbonylthiochroman-1,1-dioxide] | 0 (100) | – | – | – | – | – | – | – | 5 (0) | 5 (0) | 4 (1-20) | 5 (0) | 5 (0) | 5 (0) | melting point: 187.7 to 191.4 °C |
| CCC(=O)Oc1c(C(=O)c2cc(C)c3c(c2C)C(C)(C)CCS3)cnn1CC [Compound 19] | 0 (100) | – | – | – | – | – | – | – | 5 (0) | 5 (0) | 2 (41-60) | 5 (0) | 5 (0) | 5 (0) | melting point: 178 to 179.6 °C |
| CCCS(=O)(=O)Oc1c(C(=O)c2cc(C)c3c(c2C)C(C)(C)CCS3(=O)=O)c(C)nn1C [Compound 30, 4,4,5,8-tetramethyl-6-(1,3-dimethyl-5-n-propanesulfonyloxypyrazol-4-yl)carbonylthiochroman-1,1-dioxide] | – | 0 (100) | 1 (61-80) | 5 (0) | 3 (21-40) | 5 (0) | 4 (1-20) | 5 (0) | – | – | – | – | – | – | – |
| Cc1ccc(S(=O)(=O)Oc2c(C(=O)c3cc(C)c4c(c3C)C(C)(C)CCS4)c(C)nn2C)cc1 [Compound 31] | – | 0 (100) | 1 (61-80) | 5 (0) | 3 (21-40) | 4 (1-20) | 4 (1-20) | 5 (0) | – | – | – | – | – | – | – |
| CCn1ncc(C(=O)c2cc(C)c3c(c2C)C(C)CCS3(=O)=O)c1O (stereo not drawn) [Compound 44, 4,5,8-trimethyl-6-(1-ethyl-5-hydroxypyrazol-4-yl)carbonylthiochroman-1,1-dioxide] | – | 0 (100) | 5 (0) | 5 (0) | 5 (0) | 5 (0) | 5 (0) | 5 (0) | – | – | – | – | – | – | – |
| CCn1ncc(C(=O)c2ccc3c(c2C)CCCS3(=O)=O)c1O [Compound 48, 5-Methyl-6-(1-ethyl-5-hydroxypyrazol-4-yl)carbonylthiochroman-1,1-dioxide] | – | 0 (100) | 1 (61-80) | 5 (0) | 1 (61-80) | 5 (0) | 5 (0) | 5 (0) | – | – | – | – | – | – | – |
| CCCS(=O)(=O)Oc1c(C(=O)c2cc(C)c3c(c2C)C(C)CCS3(=O)=O)cnn1CC (stereo not drawn) [Compound 51, 4,5,8-trimethyl-6-(1-ethyl-5-n-propanesulfonyloxypyrazol-4-yl)carbonylthiochroman-1,1-dioxide] | – | 0 (100) | 5 (0) | 5 (0) | 5 (0) | 5 (0) | 5 (0) | 5 (0) | – | – | – | – | – | – | – |
| CCn1ncc(C(=O)c2cc(C)c3c(c2C)C(C)CCS3(=O)=O)c1OS(=O)(=O)c1ccc(C)cc1 (stereo not drawn) [Compound 52, 4,5,8-trimethyl-6-(1-ethyl-5-p-toluenesulfonyloxypyrazol-4-yl)carbonylthiochroman-1,1-dioxide] | – | 0 (100) | 5 (0) | 5 (0) | 5 (0) | 5 (0) | 5 (0) | 5 (0) | – | – | – | – | – | – | – |
